According to patent publication US4973675A, “Hybrid nitrosoureidoanthracyclines having antitumor activity” (University of Tennessee Research Center, priority 1989, dated 1990):
“Also recorded” adds a separate entry of the source. Like-named read-outs stand apart in the source and are kept apart here.

What was measured:
[1] = test system: murine L1210 leukemia cells; experiment: Clonogenic assay with cultured murine L1210 leukemia cells, 1 h drug exposure (LD90); assay type: cell-based
Protocol: Culture and bioassay conditions were as described in Cancer Chemotherapy Pharmacology 20:277 (1987) "Comparative Effects of Adriamycin and DNA-nonbinding Analogues on DNA, RNA, and Protein Synthesis in Vitro", Israel et al., except that cell counts were determined by hemocytometer rather than by automated cell counting.
+Dose killing 90% of clonogens, 1hr. drug exposure.

murine P388 leukemia = experiment: In vivo antitumor activity vs. murine P388 (P388/S) leukemia; design: species or system murine (B6D2F1 males); conditions: for Long-term survivors / Median increase in lifespan / Median survival / Net mean percent weight change, day 7 / Range of deaths (dying animals) / Range of death (dying animals): ip
From the text: Initial studies utilized a multiple dose schedule, with drug administered once daily on days 1, 2, 3 and 4. […] The marked activity of AD 312 in this system has been confirmed in multiple separate experiments.
Additional studies were done with AD 312 vs. murine P388/S under more demanding conditions of assay.
^a Summary results of 4 separate experiments. B6D2F1 males; 1 ×

DNA topoisomerase II = experiment: Drug-stimulated topoisomerase II-mediated DNA cleavage assay (end-labeled PMC41 DNA); assay type: biochemical; conditions: summary of biochemical studies
[2] = Solubility in water or saline; assay type: physicochemical
Protocol: Accordingly, the compounds are formulated for administration by dissolving the compound in a pharmaceutically acceptable non-toxic carrier which contains a surfactant. The present inventors employ a formulation of 10% Cremaphor EL (a polyhydroxylated castor oil derivative) available from BASF Chemicals, 10% ethanol and 80% aqueous media (sterile water or saline solution). That quantity of the compound desired for establishing an effective dose is dissolved in a 1:1 mixture of Cremaphor EL and ethanol. Thereafter, sufficient aqueous medium is added with stirring to develop a final formulation containing 80% aqueous medium. This formulation is administered parenterally.

white blood cells = experiment: Hematotoxicity study in non-tumor-bearing animals, white blood cell count; assay type: in vivo, mice
From the text: FIG. 3 is a graphic representation of white blood cell counts in mice following a single dose of 2-chloroethylnitrosoureidodaunorubicin.
Clinically and in laboratory animals, anthracycline antibiotics and chloroethylnitrosourea alkylating agents currently used in medical oncology are known to be strongly myelosuppressive, with the effects of the alkylating agents on suppression of bone marrow activity being particularly profound and long-lasting.

[3] = P388/S, 17.5 mg/kg/day, days 1-4
[4] = P388/S, single dose 40.5 mg/kg day 1
[5] = P388/S, single dose 40.5 mg/kg day 3

COc1cccc2c1C(=O)c1c(O)c3c(c(O)c1C2=O)C[C@@](O)(C(C)=O)C[C@@H]3O[C@H]1C[C@H](NC(=O)N(CCCl)N=O)[C@H](O)[C@H](C)O1 [AD 312, 2-chloroethylnitrosoureidodaunorubicin]
clonogenic cell kill ([1]; L1210, 1 hour exposure): most potent of the six agents compared | IC90 ([1]; Mus musculus, L1210, 1 hr drug exposure, read-out: L1210 LD90 (dose killing 90% of clonogens)): 260 nM | 60-day survival (murine P388 leukemia; [3]): 100% | drug toxicity (murine P388 leukemia; [3]): without evidence of drug toxicity | autopsy of surviving animals (murine P388 leukemia; P388/S, gross examination at termination): no evidence of tumor or other abnormalities was observed on gross examination | 60-day survival (murine P388 leukemia; [4]): 100% | antitumor effect (murine P388 leukemia; [4]): significant antitumor effect | dose toxicity (murine P388 leukemia; [4]): nontoxic | animals cured (murine P388 leukemia; [5]): 6 of 7 | day of the lone death (murine P388 leukemia; [5]): 45 days | Long-term survivors (murine P388 leukemia; 0.5 mg/kg qd 1-4): 0/7 | Median increase in lifespan (murine P388 leukemia; 0.5 mg/kg qd 1-4): +10% | Median survival (murine P388 leukemia; 0.5 mg/kg qd 1-4): 11 days | Net mean percent weight change, day 7 (murine P388 leukemia; 0.5 mg/kg qd 1-4): +13% | Range of deaths (dying animals) (murine P388 leukemia; 0.5 mg/kg qd 1-4): 10 to 11 days | Long-term survivors (murine P388 leukemia; 1.0 mg/kg qd 1-4): 0/7 | Median increase in lifespan (murine P388 leukemia; 1.0 mg/kg qd 1-4): +20% | Median survival (murine P388 leukemia; 1.0 mg/kg qd 1-4): 12 days | Net mean percent weight change, day 7 (murine P388 leukemia; 1.0 mg/kg qd 1-4): +6% | Range of deaths (dying animals) (murine P388 leukemia; 1.0 mg/kg qd 1-4): 11 to 18 days | Long-term survivors (murine P388 leukemia; 2.0 mg/kg qd 1-4 (Table 4)): 0/7 | Median increase in lifespan (murine P388 leukemia; 2.0 mg/kg qd 1-4 (Table 4)): +30% | Median survival (murine P388 leukemia; 2.0 mg/kg qd 1-4 (Table 4)): 13 days | Net mean percent weight change, day 7 (murine P388 leukemia; 2.0 mg/kg qd 1-4 (Table 4)): +7% | Range of deaths (dying animals) (murine P388 leukemia; 2.0 mg/kg qd 1-4 (Table 4)): 12 to 14 days | Long-term survivors (murine P388 leukemia; 2.7 mg/kg qd 1-4): 0/7 | Median increase in lifespan (murine P388 leukemia; 2.7 mg/kg qd 1-4): +60% | Median survival (murine P388 leukemia; 2.7 mg/kg qd 1-4): 16 days | Net mean percent weight change, day 7 (murine P388 leukemia; 2.7 mg/kg qd 1-4): +4% | Range of deaths (dying animals) (murine P388 leukemia; 2.7 mg/kg qd 1-4): 16 to 17 days | Long-term survivors (murine P388 leukemia; 4.0 mg/kg qd 1-4 (Table 4)): 0/7 | Median increase in lifespan (murine P388 leukemia; 4.0 mg/kg qd 1-4 (Table 4)): +75% | Median survival (murine P388 leukemia; 4.0 mg/kg qd 1-4 (Table 4)): 17.5 days | Net mean percent weight change, day 7 (murine P388 leukemia; 4.0 mg/kg qd 1-4 (Table 4)): +2% | Range of deaths (dying animals) (murine P388 leukemia; 4.0 mg/kg qd 1-4 (Table 4)): 15 to 20 days | Long-term survivors (murine P388 leukemia; 6.0 mg/kg qd 1-4): 0/7 | Median increase in lifespan (murine P388 leukemia; 6.0 mg/kg qd 1-4): +110% | Median survival (murine P388 leukemia; 6.0 mg/kg qd 1-4): 21 days | Net mean percent weight change, day 7 (murine P388 leukemia; 6.0 mg/kg qd 1-4): +4% | Range of deaths (dying animals) (murine P388 leukemia; 6.0 mg/kg qd 1-4): 19 to 24 days | Median increase in lifespan (murine P388 leukemia; 9.0 mg/kg qd 1-4): +250% | Median survival (murine P388 leukemia; 9.0 mg/kg qd 1-4): 35 days | Net mean percent weight change, day 7 (murine P388 leukemia; 9.0 mg/kg qd 1-4): -2% | Range of deaths (dying animals) (murine P388 leukemia; 9.0 mg/kg qd 1-4): 24 to 35 days | Long-term survivors (murine P388 leukemia; 9.0 mg/kg qd 1-4, sacrifice day 43): 3/7 | Median increase in lifespan (murine P388 leukemia; 10.0 mg/kg qd 1-4): > +500% | Net mean percent weight change, day 7 (murine P388 leukemia; 10.0 mg/kg qd 1-4): -1% | Range of deaths (dying animals) (murine P388 leukemia; 10.0 mg/kg qd 1-4): 38 days | Long-term survivors (murine P388 leukemia; 10.0 mg/kg qd 1-4, sacrifice day 60): 5/7 | Median increase in lifespan (murine P388 leukemia; 11.0 mg/kg qd 1-4): > +500% | Net mean percent weight change, day 7 (murine P388 leukemia; 11.0 mg/kg qd 1-4): +1% | Range of deaths (dying animals) (murine P388 leukemia; 11.0 mg/kg qd 1-4): 28 days | Long-term survivors (murine P388 leukemia; 11.0 mg/kg qd 1-4, sacrifice day 60): 5/6 | Long-term survivors (murine P388 leukemia; 12.0 mg/kg day 1 only): 0/7 | Median increase in lifespan (murine P388 leukemia; 12.0 mg/kg day 1 only): +100% | Median survival (murine P388 leukemia; 12.0 mg/kg day 1 only): 20 days | Net mean percent weight change, day 7 (murine P388 leukemia; 12.0 mg/kg day 1 only): +6% | Range of death (dying animals) (murine P388 leukemia; 12.0 mg/kg day 1 only): 16 to 22 days | Median increase in lifespan (murine P388 leukemia; 12.5 mg/kg qd 1-4): > +540% | Range of deaths (dying animals) (murine P388 leukemia; 12.5 mg/kg qd 1-4): 35 to 40 days | Long-term survivors (murine P388 leukemia; 12.5 mg/kg qd 1-4, sacrifice day 64): 4/7 | Median increase in lifespan (murine P388 leukemia; 15.0 mg/kg qd 1-4): > +540% | Net mean percent weight change, day 7 (murine P388 leukemia; 15.0 mg/kg qd 1-4): -1% | Range of deaths (dying animals) (murine P388 leukemia; 15.0 mg/kg qd 1-4): 32 to 39 days | Long-term survivors (murine P388 leukemia; 15.0 mg/kg qd 1-4, sacrifice day 64): 4/7 | Median increase in lifespan (murine P388 leukemia; 17.5 mg/kg qd 1-4): > +540% | Net mean percent weight change, day 7 (murine P388 leukemia; 17.5 mg/kg qd 1-4): -1% | Long-term survivors (murine P388 leukemia; 17.5 mg/kg qd 1-4, sacrifice day 64): 6/6 | Median increase in lifespan (murine P388 leukemia; 18.0 mg/kg day 1 only): +210% | Median survival (murine P388 leukemia; 18.0 mg/kg day 1 only): 31 days | Net mean percent weight change, day 7 (murine P388 leukemia; 18.0 mg/kg day 1 only): +7% | Range of death (dying animals) (murine P388 leukemia; 18.0 mg/kg day 1 only): 18 to 35 days | Long-term survivors (murine P388 leukemia; 18.0 mg/kg day 1 only, sacrifice day 60): 1/7 | Median increase in lifespan (murine P388 leukemia; 27.0 mg/kg day 1 only): +230% | Median survival (murine P388 leukemia; 27.0 mg/kg day 1 only): 33 days | Net mean percent weight change, day 7 (murine P388 leukemia; 27.0 mg/kg day 1 only): +9% | Range of death (dying animals) (murine P388 leukemia; 27.0 mg/kg day 1 only): 23 to 33 days | Long-term survivors (murine P388 leukemia; 27.0 mg/kg day 1 only, sacrifice day 60): 3/7 | Long-term survivors (murine P388 leukemia; 27.0 mg/kg day 3 only): 0/7 | Median increase in lifespan (murine P388 leukemia; 27.0 mg/kg day 3 only): +210% | Median survival (murine P388 leukemia; 27.0 mg/kg day 3 only): 31 days | Net mean percent weight change, day 7 (murine P388 leukemia; 27.0 mg/kg day 3 only): +17% | Range of death (dying animals) (murine P388 leukemia; 27.0 mg/kg day 3 only): 12 to 49 days | Median increase in lifespan (murine P388 leukemia; 40.5 mg/kg day 1 only): > +500% | Net mean percent weight change, day 7 (murine P388 leukemia; 40.5 mg/kg day 1 only): -3% | Long-term survivors (murine P388 leukemia; 40.5 mg/kg day 1 only, sacrifice day 60): 7/7 | Median increase in lifespan (murine P388 leukemia; 40.5 mg/kg day 3 only): > +500% | Net mean percent weight change, day 7 (murine P388 leukemia; 40.5 mg/kg day 3 only): -4% | Range of death (dying animals) (murine P388 leukemia; 40.5 mg/kg day 3 only): 45 days | Long-term survivors (murine P388 leukemia; 40.5 mg/kg day 3 only, sacrifice day 60): 6/7 | toxicity / myelosuppression at curative doses (murine P388 leukemia; tumor-bearing animals): No such effect appears to be present in tumor-bearing animals; also recorded: lack of toxicity at the curative dose levels | DNA topoisomerase II-inhibitory and alkylating activity (DNA topoisomerase II): clearly establish the DNA topoisomerase II-inhibitory activity and alkylating activity | solubility ([2]; water or saline solution): essentially insoluble in water or saline solution | solubility ([2]; water, of the order of, read-out: solubility in water): < 25 µg/mL | acute toxicity (white blood cells; dose 60.75 mg/kg): still not at an acute toxic level | recovery of white blood cell count (white blood cells; dose 60.75 mg/kg): rapid recovery again being achieved | reduction in white blood cell count (white blood cells; dose 60.75 mg/kg, day 4): about 67% | day of white blood cell nadir (white blood cells; single dose 40.5 mg/kg): 4 days | full recovery of white blood cell count (white blood cells; single dose 40.5 mg/kg): ≤ 10 days | lowering of white blood cell count (white blood cells; single dose 40.5 mg/kg): only a modest lowering of the white blood cell count | white blood cell count nadir (white blood cells; single dose 40.5 mg/kg, day 4, median 9×10^6 before drug): 6×10^6 cells/ml
